Measurements published in patent publication US12569485B2, “SMARCA inhibitors and uses thereof” (Kymera Therapeutics, Inc., priority 2019, dated 2026).
Structures can show the parent of a compound that is named as a salt.

Molecular target: T1, SMARCA2 (Homo sapiens, UniProt P51531)
T1 construct: fused on or other part: His tag (6His), detected by the anti-6His terbium cryptate antibody
Test: SMARCA2 HTRF assay
Details: His-tagged SMARCA2-17, average, read-out: SMARCA2 binding Human HTRF: Average IC50
Description: Sample handling: 1× Epigenetics Buffer is prepared according to manufacturer's instructions. 32 nM SMARCA2-17 (4×) is prepared with Epigenetics Buffer. 4×Tb working solution is prepared by diluting Mab Anti 6His Tb cryptate Gold in PPI-Terbium Detection buffer to 0.21 ng/μ1 (100× dilution from stock). SMARCA2-mAb-Tb working solution is prepared by mixing equal volume of 32 nM SMARCA2 with Tb working solution. A half-hour timer is started. In a 96-well plate, serial dilution of compound DMSO solutions is prepared. […] of Epigenetics Buffer is placed to a second 96-well plate. 1 μl of the 100× compound DMSO solution is transferred to the second 96-well plate to make 4× compound working solution. 5 μl/well of 4× compound working solution is added into the 384-well plate and mixed well. […] of SMARCA2-mAb-Tb working solution is added into 384-well plate. The above mixtures are incubated at room temperature for 30 min. Data is collected and processed on EnVision. 520 nm/495 nm readouts ratio are calculated from raw data.
The letter codes for SMARCA2 average IC50 (μM) include: A (<1 μM), B (1-50 μM), C (51-200 μM), and D (>200 μM).

T1 sequence (P51531 whole entry, the tested form may be a part): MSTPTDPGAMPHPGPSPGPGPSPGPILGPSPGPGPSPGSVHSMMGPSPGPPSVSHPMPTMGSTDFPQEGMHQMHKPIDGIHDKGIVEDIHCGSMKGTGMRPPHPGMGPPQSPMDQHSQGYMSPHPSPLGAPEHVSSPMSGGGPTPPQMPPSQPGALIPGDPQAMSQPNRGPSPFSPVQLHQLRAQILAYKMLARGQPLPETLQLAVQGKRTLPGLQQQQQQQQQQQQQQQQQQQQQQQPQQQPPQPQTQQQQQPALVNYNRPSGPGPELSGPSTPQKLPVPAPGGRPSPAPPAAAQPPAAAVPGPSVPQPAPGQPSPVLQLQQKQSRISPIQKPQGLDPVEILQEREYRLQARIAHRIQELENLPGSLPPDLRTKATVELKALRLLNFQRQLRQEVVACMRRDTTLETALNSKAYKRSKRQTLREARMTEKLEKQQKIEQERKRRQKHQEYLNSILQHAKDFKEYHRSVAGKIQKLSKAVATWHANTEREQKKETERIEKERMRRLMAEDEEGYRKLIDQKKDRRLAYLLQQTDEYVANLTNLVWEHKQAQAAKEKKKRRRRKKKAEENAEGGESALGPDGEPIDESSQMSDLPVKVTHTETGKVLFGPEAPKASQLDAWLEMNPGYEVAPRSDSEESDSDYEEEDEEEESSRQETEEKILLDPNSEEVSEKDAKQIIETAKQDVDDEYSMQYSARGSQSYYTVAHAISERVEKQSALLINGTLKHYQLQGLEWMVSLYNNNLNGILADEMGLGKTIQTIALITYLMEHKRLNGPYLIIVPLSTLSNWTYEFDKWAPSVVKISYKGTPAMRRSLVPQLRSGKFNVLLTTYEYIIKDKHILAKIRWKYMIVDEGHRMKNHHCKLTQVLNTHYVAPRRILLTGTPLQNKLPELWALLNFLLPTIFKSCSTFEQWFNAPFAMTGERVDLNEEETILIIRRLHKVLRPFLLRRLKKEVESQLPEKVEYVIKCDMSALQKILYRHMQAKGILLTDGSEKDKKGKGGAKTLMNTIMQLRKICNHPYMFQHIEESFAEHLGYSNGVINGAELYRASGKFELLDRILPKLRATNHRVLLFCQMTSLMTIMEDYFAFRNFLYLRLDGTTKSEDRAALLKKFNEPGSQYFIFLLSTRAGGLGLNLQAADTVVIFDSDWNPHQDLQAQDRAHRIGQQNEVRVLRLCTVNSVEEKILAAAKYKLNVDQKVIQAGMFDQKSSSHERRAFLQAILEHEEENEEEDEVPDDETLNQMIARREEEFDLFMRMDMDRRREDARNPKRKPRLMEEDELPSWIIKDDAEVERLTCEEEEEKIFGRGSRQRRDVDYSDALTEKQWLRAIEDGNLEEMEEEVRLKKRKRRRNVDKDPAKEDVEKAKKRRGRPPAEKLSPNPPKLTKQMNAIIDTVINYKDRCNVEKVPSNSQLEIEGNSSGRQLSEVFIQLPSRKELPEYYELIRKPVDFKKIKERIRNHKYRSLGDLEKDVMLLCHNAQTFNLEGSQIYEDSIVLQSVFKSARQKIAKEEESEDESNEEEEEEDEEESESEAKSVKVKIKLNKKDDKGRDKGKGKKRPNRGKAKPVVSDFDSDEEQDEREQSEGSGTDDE

SMILES | IC50
C[C@H]1c2c([nH]c3nnc(-c4ccccc4O)cc23)CCN1c1ncc(C2CCNCC2)cn1 [I-113, (S)-2-(5-methyl-6-(5-(piperidin-4-yl)pyrimidin-2-yl)-6,7,8,9-tetrahydro-5H-pyrido[3′,4′:4,5]pyrrolo[2,3-c]pyridazin-3-yl)phenol] | < 1 µM
CC(=O)Nc1nnc(-c2ccccc2O)cc1N1CCNCC1 [I-102, N-[6-(2-hydroxyphenyl)-4-piperazin-1-yl-pyridazin-3-yl]acetamide] | 51 to 200 µM
Nc1ncc(N2C(=O)CCC2=O)cc1N1CCNCC1 [I-70, 1-(6-amino-5-(piperazin-1-yl)pyridin-3-yl)pyrrolidine-2,5-dione] | > 200 µM
O=C1Nc2nnc(-c3ccccc3O)cc2C12CCN(c1ccccc1)CC2 [I-64, 3-(2-hydroxyphenyl)-1′-phenyl-spiro [7H-pyrrolo[2,3-c]pyridazine-5,4′-piperidine]-6-one] | 1 to 50 µM
C[C@H]1c2c([nH]c3nnc(-c4ccccc4O)cc23)CCN1c1nccc(C2CCNCC2)n1 [I-111, (S)-2-(5-methyl-6-(4-(piperidin-4-yl)pyrimidin-2-yl)-6,7,8,9-tetrahydro-5H-pyrido[3′,4′:4,5]pyrrolo[2,3-c]pyridazin-3-yl)phenol] | < 1 µM
Oc1ccccc1-c1ccc(NC2CCNCC2)nn1 [I-127, 2-[6-(4-piperidylamino)pyridazin-3-yl]phenol] | 1 to 50 µM
CC(C)(C)OC(=O)N1CC=C(c2cc3c(=O)[nH]c4nnc(-c5ccccc5O)cc4n3c2)CC1 [I-124, tert-butyl 4-(2-(2-hydroxyphenyl)-6-oxo-5,6-dihydropyrrolo[1′,2′:4,5]pyrazino[2,3-c]pyridazin-8-yl)-5,6-dihydropyridine-1(2H)-carboxylate] | 1 to 50 µM
Oc1ccccc1-c1cc2c(nn1)NC[C@@H]1CN(c3ncccn3)CCN21 [I-106, (R)-2-(8-(pyrimidin-2-yl)-6,6a,7,8,9,10-hexahydro-5H-pyrazino[1′,2′:4,5]pyrazino[2,3-c]pyridazin-2-yl)phenol] | < 1 µM
O=c1[nH]c2nnc(-c3ccccc3O)cc2c2c1CCNC2 [I-1, 9-(2-hydroxyphenyl)-1,2,3,4-tetrahydropyridazino[3,4-c][2,6]naphthyridin-5(6H)-one hydrochloride] | 1 to 50 µM
CC(=O)Nc1cnc(N)c(-c2cnn(C)c2)c1C [I-129, N-[6-amino-4-methyl-5-(1-methylpyrazol-4-yl)-3-pyridyl]acetamide] | > 200 µM
Nc1ncc(N2CCNC2=O)cc1N1CCNCC1 [I-71, 1-(6-amino-5-piperazin-1-yl-3-pyridyl)imidazolidin-2-one] | > 200 µM
Nc1ncc(N2CCNCC2=O)cc1N1CCNCC1 [I-73, 1-(6-amino-5-piperazin-1-yl-3-pyridyl)piperazin-2-one] | > 200 µM
C[C@@H]1NCCc2[nH]c3nnc(-c4ccccc4O)cc3c21 [I-117] | 51 to 200 µM
O=C1Nc2nnc(-c3ccccc3O)cc2C12CCNCC2 [I-7, 3-(2-hydroxyphenyl)spiro[7H-pyrrolo[2,3-c]pyridazine-5,4′-piperidine]-6-one] | > 200 µM
O=C1NCCc2[nH]c3nnc(-c4ccccc4O)cc3c21 [I-119, 3-(2-hydroxyphenyl)-6,7,8,9-tetrahydro-5H-pyrido[3′,4′:4,5]pyrrolo[2,3-c]pyridazin-5-one] | 1 to 50 µM
Oc1ccccc1-c1cc2c(nn1)NCC1CNCCN21 (centres unmarked) [I-120, 2-(6,6a,7,8,9,10-hexahydro-5H-pyrazino[1′,2′:4,5]pyrazino[2,3-c]pyridazin-2-yl)phenol 2,2,2-trifluoroacetate] | 1 to 50 µM

SMILES | IC50
C[C@@H]1c2c([nH]c3nnc(-c4ccccc4O)cc23)CCN1c1ncc(C2CCNCC2)cn1 [I-112, (R)-2-(5-methyl-6-(5-(piperidin-4-yl)pyrimidin-2-yl)-6,7,8,9-tetrahydro-5H-pyrido[3′,4′:4,5]pyrrolo[2,3-c]pyridazin-3-yl)phenol] | < 1 µM
Nc1ncc2c(Cl)cccc2c1N1CCNCC1 [I-74, 8-chloro-4-(piperazin-1-yl)isoquinolin-3-amine] | > 200 µM
O=c1[nH]c2nnc(-c3ccccc3O)cc2n2cc(C3CCNCC3)cc12 [I-125, 2-(2-hydroxyphenyl)-8-(piperidin-4-yl)pyrrolo[1′,2′:4,5]pyrazino[2,3-c]pyridazin-6(5H)-one] | 1 to 50 µM
O=c1[nH]c2nnc(-c3ccccc3O)cc2c2c1CNCC2 [I-2, 2-(2-hydroxyphenyl)-7,8,9,10-tetrahydro-5H-pyridazino[3,4-c][2,7]naphthyridin-6-one] | 1 to 50 µM
O=C1Nc2nnc(-c3ccccc3O)cc2C12CCN(Cc1ccccc1)CC2 [I-121, 1′-benzyl-3-(2-hydroxyphenyl)spiro[7H-pyrrolo[2,3-c]pyridazine-5,4′-piperidine]-6-one] | 1 to 50 µM
C[C@H]1c2c([nH]c3nnc(-c4ccccc4O)cc23)CCN1c1ncccn1 [I-118, (S)-2-(5-methyl-6-(pyrimidin-2-yl)-6,7,8,9-tetrahydro-5H-pyrido[3′,4′:4,5]pyrrolo[2,3-c]pyridazin-3-yl)phenol] | < 1 µM
Oc1ccccc1-c1cc2c(nn1)NC[C@H]1CN(c3ncccn3)CCN21 [I-107, (S)-2-(8-(pyrimidin-2-yl)-6,6a,7,8,9,10-hexahydro-5H-pyrazino[1′,2′:4,5]pyrazino[2,3-c]pyridazin-2-yl)phenol] | < 1 µM
COCCNc1nnc(-c2ccccc2O)cc1N1CCNCC1 [I-101, 2-[6-(2-methoxyethylamino)-5-piperazin-1-yl-pyridazin-3-yl]phenol] | > 200 µM
Oc1ccccc1-c1cc2c(nn1)[nH]c1ccc(C3CCNCC3)cc12 [I-114, 2-(6-(piperidin-4-yl)-9H-pyridazino[3,4-b]indol-3-yl)phenol] | < 1 µM
Oc1ccccc1-c1cc(N2CCNCC2)c(NC2COC2)nn1 [I-128, 2-[6-(oxetan-3-ylamino)-5-piperazin-1-yl-pyridazin-3-yl]phenol] | 51 to 200 µM
C[C@@H]1c2c([nH]c3nnc(-c4ccccc4O)cc23)CCN1c1ncccn1 [I-116, (R)-2-(5-methyl-6-(pyrimidin-2-yl)-6,7,8,9-tetrahydro-5H-pyrido[3′,4′:4,5]pyrrolo[2,3-c]pyridazin-3-yl)phenol] | < 1 µM
Oc1ccccc1-c1cc2c(nn1)NC[C@H]1CNCCN21 [I-108, (R)-2-(6,6a,7,8,9,10-hexahydro-5H-pyrazino[1′,2′:4,5]pyrazino[2,3-c]pyridazin-2-yl)phenol] | 1 to 50 µM
C[C@H]1NCCc2[nH]c3nnc(-c4ccccc4O)cc3c21 [I-115, (R)-2-(5-methyl-6,7,8,9-tetrahydro-5H-pyrido[3′,4′:4,5]pyrrolo[2,3-c]pyridazin-3-yl)phenol] | 51 to 200 µM
CC(=O)n1ncc2c(-c3cnn(C)c3)c(N)ncc21 [I-126, 1-[5-amino-4-(1-methylpyrazol-4-yl)pyrazolo[3,4-c]pyridine-1-yl]ethanone] | > 200 µM
C[C@@H]1c2c([nH]c3nnc(-c4ccccc4O)cc23)CCN1c1nccc(C2CCNCC2)n1 [I-110, (R)-2-(5-methyl-6-(4-(piperidin-4-yl)pyrimidin-2-yl)-6,7,8,9-tetrahydro-5H-pyrido[3′,4′:4,5]pyrrolo[2,3-c]pyridazin-3-yl)phenol] | < 1 µM
Oc1ccccc1-c1cc2c(cc3n2CCN(c2ncccn2)C3)nn1 [I-123, 2-(8-(pyrimidin-2-yl)-6,7,8,9-tetrahydropyrazino[1′,2′:1,5]pyrrolo[3,2-c]pyridazin-3-yl)phenol] | 1 to 50 µM
